Reference: patent publication US8685720B2, “Engineered cellular pathways for programmed autoregulation of differentiation” (The Trustees of Princeton University, priority 2006, dated 2014)
Entries after “also recorded” stand apart in the source; their conditions may differ.

System: mammalian version of LuxR in 293FT cells
Experiment: 30C6HSL detection by mammalian receiver cells expressing chimeric LuxR-activator
Assay type: cell-based
Settings: P65-LuxR fusion, synthetic lux promoter, exogenous 30C6HSL
Text: FIG. 2: (a) 30C6HSL synthesis by mammalian 293FT cells. Supernatant from the cells' growth media was collected and filter sterilized. Histograms show the fluorescence intensities of bacterial cells sensitive to 30C6HSL grown in the filtered supernatant, expressing green fluorescent protein due to 30C6HSL from the mammalian cells. (b) 30C6HSL detection by mammalian receiver cells. […] (c) Controlled stem cell differentiation with genetically inducible systems. Three different lentiviral genetic constructs were built, enabling exogenous chemical induction into myoblasts, adipocytes, or maintenance of stem cell properties. […] In addition, the marker protein for myoblasts, dystrophin, was expressed from these cells (data not shown). […] In a separate experiment, induced expression of Nanog supplanted the need for a growth factor usually required to maintain the overall character of mES cells.
The 30C6HSL detection pathway consists of a signal transducer that binds 30C6HSL and activates transcription of genes controlled by a synthetic lux promoter. The 30C6HSL signal transducer is a chimeric LuxR-activator protein created by the fusion of a P65 mammalian activation domain to a codon optimized mammalian version of a bacterial LuxR.

CCCC(=O)CC(=O)N[C@H]1CCOC1=O [30C6HSL]
response (EGFP expression) to the addition of 30C6HSL: strong response; also recorded: express EGFP only upon induction with exogenous 30C6HSL
